The subject of test [1] is Gumbus cells. Nature of the test: MTT cell viability assay. In kind it is cell-based, human. Conditions: 48 h. The method, then: (§1) We determined IC50 values for the viability reduction in a low micro molar range (Figure 6B).
(§2) MTT cell viability assay: For the detection of the inhibition of the viability of cells by the pentathiepins, the MTT‐viability assay was used.37 Briefly, 10 000 and 20 000 cells for the suspension cell lines HL‐60 and Gumbus, respectively, were seeded out in 50 μL medium per well and immediately exposed to the compounds. For the adherent cell lines SISO and HAP‐1, 3000 and 5000 cells, respectively, were seeded out in 96‐well plates and allowed to attach for 24 h. Cells were exposed to nine serial dilutions of compound, added to the medium from 1000‐fold concentrated stock solution in DMF. For the controls, cells were exposed to 0.1 % DMF alone. After 48 h incubation, 20 μL of the MTT stock solution (2.5 mg/mL in PBS) were added to each well to give a final concentration of 1.0 mM. The formazan crystals that formed after 4 h at 37 °C were dissolved by sonification after adding 100 μL of 0.04 M HCl in isopropanol for the suspension cell lines, or with 50 μL DMSO after aspiration of the medium for the adherent cell lines. Optical density was measured with a SpectraMax Plus 383 microtiter plate read at λ=570 nm (Molecular Devices, USA). Data of related absorption to control cells were imported into GraphPad Prism 6.0 software and IC50 values were generated by determining the inflection point of the sigmoidal log concentration‐viability inhibition curves.
A general note: Tetrazolium dyes change colour on reduction, which living cells bring about.

In another test the test system is HAP-1 cells. The test can be described thus: MTT cell viability assay. Format: cell-based, human. Here is the method:
as §1, §2

The next test deals with SISO cells. The test can be described thus: MTT cell viability assay. Format: cell-based, human. Conditions: 48 h. Here is the method: as §1, §2
In test [2] the test system is SISO human cervix cancer cell line. Nature of the test: Crystal violet proliferation assay. In kind it is cell-based. Conditions: Homo sapiens, 37 °C, 96 h, n>4, read-out: Inhibition of cell viability GI50 (CI 95 %). The method, then:
GI50 values for 50 % growth inhibition were all in a low micro molar range (Table 1). […] The indole−pentathiepins gave lower GI50 values than the pyrrolo[1,2‐a]quinoxaline derivatives. […] There was also a trend showing that an electron rich substituent in position R^2 increased the antiproliferative effect in SISO cells.
Crystal violet proliferation assay: To measure cell growth inhibition, the crystal violet assay was carried out as previously described.37 Adherent cell lines were seeded out in a 96‐well plate (1000 cells per 200 μL culture medium) and allowed to attach for 24 h. Cells were exposed to nine serial dilutions of compound, added to the medium from 1000‐fold concentrated stock solutions in DMF. For the controls, cells were exposed to 0.1 % DMF alone. After addition of compounds, plates for the detection of the starting point of the proliferation at incubation time zero (t 0) were stopped with glutaraldehyde (see below), washed with Dulbecco's buffer (containing KCl 0.2 g/L, MgSO4 ⋅ 7 H2O 0.1 g/L, Na2HPO4 ⋅ >7 H2O 1.55 g/L, KH2HPO4 0.2 g/L and NaCl 8 g/L in water) and stored at 4 °C until the staining procedure. Treated cells were incubated for 96 h in the incubator, the medium was removed and replaced with 100 μL of 1 % glutaraldehyde in Dulbecco's buffer for 20 min. After washing twice with 150 μL of Dulbecco's buffer, the buffer was removed and replaced with 100 μL of a 0.02 % crystal violet solution dissolved in water for 30 min and subsequently washed in tap water for 15 min. Water was removed and replaced with 100 μL of ethanol (70 % in water) followed by shaking on a 96‐well shaker (MS3 digital, IKA‐Werke, Germany) for 2 h. Optical density was measured with a SpectraMax Plus 383 microtiter plate reader at λ=570 nm (Molecular Devices, USA). The optical density of t 0 plates at the time of treatment were subtracted from optical densities of plates with treated cells after 96 h (T), and the growth inhibition relative to untreated, control cells (C) as described.22 Growth inhibition concentrations at 50 % (GI50) were calculated by determining the inflection point of the sigmoidal log dose‐growth inhibition (%T/C) curves with the GraphPad Prism 6.0 software.

Test [3] deals with Gumbus cells. The test can be described thus: Western blot analysis of PARP cleavage. Format: cell-based, human. Conditions: multiple IC50 concentrations, 6 h. The method, then:
(§3) Another method for detecting caspase dependent apoptosis is to measure the cleavage of the enzyme poly‐(ADP‐ribose)‐polymerase (PARP) by western blotting. After an apoptotic stimulus, caspases, e. g. caspase‐3 and caspase‐7, cleave PARP, resulting in a loss of its function to mediate DNA‐repair processes. Cells were incubated with multiple IC50 concentrations of 4 for 6 and 24 h. […] Thus, pentathiepin 4 appears to induce the caspase dependent induction of apoptosis.
(§4) Western blot analysis of PARP: For western blot analysis the Biorad system with “Mini‐Protean® TGX Stain‐Fee™ Gels” and “Trans‐Blot® Turbo™ Transfer Pack Mini” PVDF‐membranes were used (Biorad, Germany). Protein lysates for analysis were prepared by seeding out 10^6 cells into T25 flasks and incubated with 4 in multiple concentrations of the viability IC50 for 6 and 24 h. […] Lysates were centrifuged at 18 000 g for 10 min at 4 °C and protein content was determined by the Bradford method against bovine serum albumin (BSA) as standard. […] Protein bands were detected with Clarity™ Western ECL Substrate (Biorad) and recorded by an Advanced Fluorescence Imager (INTAS, Germany).

The subject of another test is HL-60 cells. The test can be described thus: Western blot analysis of PARP cleavage. In kind it is cell-based, human. Conditions: multiple IC50 concentrations, 6 h. The method, then: as §3, §4
[4] abbreviates: Homo sapiens, MTT, read-out: IC50 for viability reduction.

Each structure is given as a SMILES string.

This is an account of results in paper PMC7496275, “Pentathiepins: A Novel Class of Glutathione Peroxidase 1 Inhibitors that Induce Oxidative Stress, Loss of Mitochondrial Membrane Potential and Apoptosis in Human Cancer Cells” (Chemmedchem, 2020).

`CCOc1c2c(c3cnc4cc(C)c(C)cc4n13)SSSSS2` [Compound 4]: the “cell viability at highest tested concentration” value in the test on Gumbus cells [1], in the test on HAP-1 cells (48 h) and in the test with SISO cells was “complete loss of cell viability” throughout. The IC50 (commonly the concentration that inhibits the measured activity by half) with Gumbus cells [1] (setting [4]) was 2.2 to 3.1 µM; in the test on HAP-1 cells (Homo sapiens, HAP1, 48 h, MTT, read-out: IC50 for viability reduction), 2.2 to 3.1 µM; in the test on SISO cells (setting [4]), 2.2 to 3.1 µM. The GI50 (in general, the concentration at which growth is held to half of that of the control) in test [2] turned out to be 8.9 µM. For the same molecule, the PARP cleavage result with Gumbus cells [3] and in the test on HL-60 cells was “cleavage of PARP was detectable” each time.
